In article PMC9072010, “Synthesis and bioevaluation of thienopyrimidines bearing a pyrazoline unit as selective PI3Kα inhibitors” (RSC Advances, 2019):

Tests used:
[1] = system: A549 cancer cell lines; experiment: MTT antiproliferative assay, A549; assay type: cell-based, human
[2] = system: HepG2 cancer cell lines; experiment: MTT antiproliferative assay, HepG2; assay type: cell-based, human
[3] = system: MCF-7 cancer cell lines; experiment: MTT antiproliferative assay, MCF-7; assay type: cell-based, human
[4] = biological target: PI3Kα (Homo sapiens, UniProt P42336); experiment: Kinase-Glo Luminescent Kinase Assay, PI3Kα; assay type: biochemical; settings: average of two separate determinations
Protocol: The experiment was conducted according to the method reported by our research group.[17]

[5] = biological target: mTOR (Homo sapiens, UniProt P42345); experiment: Kinase-Glo Luminescent Kinase Assay, mTOR; assay type: biochemical; settings: average of two separate determinations
[6] = system: A549 cells; experiment: Annexin V-FITC/PI double staining by flow cytometry; assay type: cell-based, human
[7] = system: A549 cancer cell lines; experiment: Acridine orange (AO) single staining; assay type: cell-based, human; settings: A549, fluorescence microscopy, Fig. 4
Protocol: In order to investigate whether the target compound 13f could induce the apoptosis of A549 cancer cell lines, acridine orange (AO) staining assay was carried out. […] But in the test group (Fig. 4b), the cell shape was abnormal with cell shrinkage, chromatin condensation after compound 13f acted on the A549 cells.
The cancer cell apoptotic of target compound 13f were evaluated with A549 cancer cell lines by acridine orange single staining. The experiment was conducted according to the method reported by our research group.[18]

[8] = Homo sapiens, A549, Table 1, average of two separate determinations
[9] = Homo sapiens, HepG2, Table 1, average of two separate determinations
[10] = Homo sapiens, MCF7, Table 1, average of two separate determinations
[11] = Homo sapiens, A549, Table 2, average of two separate determinations
[12] = Homo sapiens, HepG2, Table 2, average of two separate determinations
[13] = Homo sapiens, MCF7, Table 2, average of two separate determinations
[14] = Table 2, average of two separate determinations

Sequence of PI3Kα (P42336 whole entry): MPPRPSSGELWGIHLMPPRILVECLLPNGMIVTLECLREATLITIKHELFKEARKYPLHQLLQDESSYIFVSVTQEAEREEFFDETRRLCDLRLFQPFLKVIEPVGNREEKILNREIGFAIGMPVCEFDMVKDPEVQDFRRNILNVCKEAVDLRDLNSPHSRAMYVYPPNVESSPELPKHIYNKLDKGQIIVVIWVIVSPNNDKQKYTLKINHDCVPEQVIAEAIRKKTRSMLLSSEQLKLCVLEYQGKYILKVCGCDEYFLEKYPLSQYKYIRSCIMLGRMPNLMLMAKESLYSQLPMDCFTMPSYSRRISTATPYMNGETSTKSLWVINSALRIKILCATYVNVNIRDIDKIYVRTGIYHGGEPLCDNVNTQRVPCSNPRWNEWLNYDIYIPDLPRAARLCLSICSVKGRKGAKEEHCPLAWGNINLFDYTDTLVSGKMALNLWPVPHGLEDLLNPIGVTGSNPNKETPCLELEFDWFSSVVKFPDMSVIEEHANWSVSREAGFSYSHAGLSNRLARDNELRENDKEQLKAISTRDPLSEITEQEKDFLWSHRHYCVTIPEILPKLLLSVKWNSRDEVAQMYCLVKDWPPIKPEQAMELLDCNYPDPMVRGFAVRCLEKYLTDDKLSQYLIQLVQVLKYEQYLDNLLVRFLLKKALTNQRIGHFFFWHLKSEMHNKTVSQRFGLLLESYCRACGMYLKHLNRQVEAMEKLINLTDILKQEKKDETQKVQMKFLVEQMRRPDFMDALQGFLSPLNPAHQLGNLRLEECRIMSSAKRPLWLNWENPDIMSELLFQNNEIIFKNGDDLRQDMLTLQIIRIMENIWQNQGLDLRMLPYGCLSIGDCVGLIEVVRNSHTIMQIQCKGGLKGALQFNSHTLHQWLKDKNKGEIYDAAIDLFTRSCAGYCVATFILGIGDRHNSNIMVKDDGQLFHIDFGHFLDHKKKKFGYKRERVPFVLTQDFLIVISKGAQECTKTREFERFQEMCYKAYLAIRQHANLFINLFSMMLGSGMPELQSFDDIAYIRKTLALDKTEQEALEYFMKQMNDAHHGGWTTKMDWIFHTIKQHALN
Sequence of PI3Kα (P27986 whole entry partner): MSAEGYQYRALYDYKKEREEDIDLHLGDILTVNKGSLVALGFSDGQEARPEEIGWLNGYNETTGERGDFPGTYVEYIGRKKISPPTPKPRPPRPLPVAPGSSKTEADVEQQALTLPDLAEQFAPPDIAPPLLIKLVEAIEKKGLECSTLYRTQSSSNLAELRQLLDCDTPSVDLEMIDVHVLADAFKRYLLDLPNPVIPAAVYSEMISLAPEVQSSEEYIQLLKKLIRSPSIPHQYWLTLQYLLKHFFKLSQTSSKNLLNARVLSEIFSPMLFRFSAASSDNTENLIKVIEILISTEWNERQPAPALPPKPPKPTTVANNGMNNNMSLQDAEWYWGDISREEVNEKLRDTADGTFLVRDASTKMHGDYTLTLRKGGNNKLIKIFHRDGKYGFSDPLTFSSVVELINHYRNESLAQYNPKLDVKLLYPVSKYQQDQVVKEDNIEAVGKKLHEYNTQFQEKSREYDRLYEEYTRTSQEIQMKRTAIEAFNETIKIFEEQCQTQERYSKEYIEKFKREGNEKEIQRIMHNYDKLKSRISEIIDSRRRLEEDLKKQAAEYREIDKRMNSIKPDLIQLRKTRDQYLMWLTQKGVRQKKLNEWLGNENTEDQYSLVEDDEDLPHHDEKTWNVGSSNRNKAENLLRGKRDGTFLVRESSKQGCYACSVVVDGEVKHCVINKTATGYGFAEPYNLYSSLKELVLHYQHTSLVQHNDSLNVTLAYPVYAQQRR

Row | Compound | IC50 [1, 8] | melting point | IC50 [2, 9] | IC50 [3, 10] | IC50 [1, 11] | IC50 [2, 12] | IC50 [3, 13] | other results
1 | Cc1ccc(-c2ccnn2-c2nc(N3CCOCC3)c3ccsc3n2)cc1 [Compound 7b, 4-(2-(5-(p-Tolyl)-1H-pyrazol-1-yl)thieno[2,3-d]pyrimidin-4-yl)morpholine] | 35 ± 0.97 µM | 286 to 289 °C | 33.9 ± 1.13 µM | 30.9 ± 1.05 µM | – | – | – | –
2 | Fc1ccc(-c2ccnn2-c2nc(N3CCOCC3)c3ccsc3n2)cc1 [Compound 7c, 4-(2-(5-(4-Fluorophenyl)-1H-pyrazol-1-yl)thieno[2,3-d]pyrimidin-4-yl)morpholine] | > 100 µM | 202 to 205 °C | > 100 µM | > 100 µM | – | – | – | –
3 | CN(C)CCN(C)c1nc(N2N=C(c3ccccc3)CC2c2ccccc2)nc2sccc12 (stereo not drawn) [Compound 13i, N ^1-(2-(3,5-Diphenyl-4,5-dihydro-1H-pyrazol-1-yl)thieno[2,3-d]pyrimidin-4-yl)-N^1,N^2,N^2-trimethylethane-1,2-diamine] | – | 225 to 227 °C | – | – | 9.43 ± 0.1 µM | 6.7 ± 0.14 µM | 5.04 ± 0.06 µM | –
4 | N ^1-(2-(3-(3,4-Dichlorophenyl)-3-phenyl-4,5-dihydro-1H-pyrazol-1-yl)thieno[2,3-d]pyrimidine-4-yl)-N^1, N^2,N^2-trimethylethane-1,2-diamine [Compound 13e] | – | – | – | – | – | – | – | IC50 [1, 14]: 13.4 ± 0.29 µM; IC50 [2, 14]: 8.05 ± 0.05 µM; IC50 [3, 14]: 10.5 ± 0.54 µM
5 | Clc1ccc(-c2ccnn2-c2nc(N3CCOCC3)c3ccsc3n2)cc1 [Compound 7d, 4-(2-(5-(4-Chlorophenyl)-1H-pyrazol-1-yl)thieno[2,3-d]pyrimidin-4-yl)morpholine] | > 100 µM | 280 to 282 °C | > 100 µM | > 100 µM | – | – | – | –
6 | CN(C)CCN(C)c1nc(N2N=C(c3ccc(Cl)c(Cl)c3)CC2c2ccc(Br)cc2)nc2sccc12 (stereo not drawn) [Compound 13b, N ^1-(2-(5-(4-Bromophenyl)-3-(3,4-dichlorophenyl)-4,5-dihydro-1H-pyrazol-1-yl)thieno[2,3-d]pyrimidin-4-yl)-N^1,N^2,N^2-trimethylethane-1,2-diamine] | – | 291 to 294 °C | – | – | 17.43 ± 0.13 µM | 12.9 ± 0.64 µM | 12.8 ± 0.23 µM | –
7 | COc1ccc(C2CC(c3ccc(F)cc3)=NN2c2nc(N(C)CCN(C)C)c3ccsc3n2)cc1 (stereo not drawn) [Compound 13j, N ^1-(2-(3-(4-Fluorophenyl)-5-(4-methoxyphenyl)-4,5-dihydro-1H-pyrazol-1-yl)thieno[2,3-d]pyrimidin-4-yl)-N^1,N^2,N^2-trimethylethane-1,2-diamine] | – | 286 to 287 °C | – | – | – | 83.86 ± 0.17 µM | – | –
8 | Cc1ccc(-c2ccnn2-c2nc(N3CCOCC3)c3sccc3n2)cc1 [Compound 4b, 4-(2-(5-(p-Tolyl)-1H-pyrazol-1-yl)thieno[3,2-d]pyrimidin-4-yl)morpholine] | > 100 µM | 166.8 to 171.5 °C | > 100 µM | > 100 µM | – | – | – | –
9 | Fc1ccc(-c2ccnn2-c2nc(N3CCOCC3)c3sccc3n2)cc1 [Compound 4c, 4-(2-(5-(4-Fluorophenyl)-1H-pyrazol-1-yl)thieno[3,2-d]pyrimidin-4-yl)morpholine] | > 100 µM | 228 to 231 °C | > 100 µM | > 100 µM | – | – | – | –
10 | Clc1ccc(-c2ccnn2-c2nc(N3CCOCC3)c3sccc3n2)cc1 [Compound 4d, 4-(2-(5-(4-Chlorophenyl)-1H-pyrazol-1-yl)thieno[3,2-d]pyrimidin-4-yl)morpholine] | > 100 µM | 250 to 251 °C | > 100 µM | > 100 µM | – | – | – | –
11 | CS(=O)(=O)N1CCN(Cc2cc3nc(-c4cccc5[nH]ncc45)nc(N4CCOCC4)c3s2)CC1 [GDC-0941, reference compound] | 6.99 ± 0.21 µM | – | 0.2 ± 0.08 µM | 0.07 ± 0.03 µM | – | 0.07 ± 0.03 µM | 0.2 ± 0.08 µM | –
12 | c1ccc(-c2ccnn2-c2nc(N3CCOCC3)c3ccsc3n2)cc1 [Compound 7a, 4-(2-(5-Phenyl-1H-pyrazol-1-yl)thieno[2,3-d]pyrimidin-4-yl)morpholine] | 37.6 ± 1.88 µM | 223 to 225 °C | 20.2 ± 1.15 µM | 25.3 ± 0.93 µM | – | – | – | –
13 | CN(C)CCN(C)c1nc(N2N=C(c3ccc(Br)cc3)CC2c2ccccc2)nc2sccc12 (stereo not drawn) [Compound 13l, N ^1-(2-(3-(4-Bromophenyl)-5-phenyl-4,5-dihydro-1H-pyrazol-1-yl)thieno[2,3-d]pyrimidin-4-yl)-N^1,N^2,N^2-trimethylethane-1,2-diamine] | – | 261 to 262 °C | – | – | 22.95 ± 0.15 µM | 15.8 ± 1.23 µM | 17.2 ± 0.48 µM | –
14 | Cc1ccc(C2CC(c3ccc(Br)cc3)=NN2c2nc(N(C)CCN(C)C)c3ccsc3n2)cc1 (stereo not drawn) [Compound 13h, N ^1-(2-(3-(4-Bromophenyl)-5-(p-tolyl)-4,5-dihydro-1H-pyrazol-1-yl)thieno[2,3-d]pyrimidin-4-yl)-N^1,N^2,N^2-trimethylethane-1,2-diamine] | – | 272 to 273 °C | – | – | 5.43 ± 0.17 µM | 4.45 ± 0.25 µM | – | IC50 [4]: 7.16 ± 0.27 µM; IC50 [5]: > 10 µM
15 | COc1ccc(C2CC(c3ccccc3)=NN2c2nc(N(C)CCN(C)C)c3ccsc3n2)cc1 (stereo not drawn) [Compound 13f, N ^1-(2-(5-(4-Methoxyphenyl)-3-phenyl-4,5-dihydro-1H-pyrazol-1-yl)thieno[2,3-d]pyrimidin-4-yl)-N^1,N^2,N^2-trimethylethane-1,2-diamine] | – | – | – | – | 2.84 ± 0.09 µM | 2.08 ± 0.36 µM | 2.88 ± 0.43 µM | inhibition of proliferation of A549 cancer cell lines (dose and time dependence) ([1]; several concentrations and exposure times, Fig. 3): dose-dependent and time-dependent; early apoptotic cells ([6]; A549, 1.6 μM, 24 h): 9.14%; late apoptotic cells ([6]; A549, 1.6 μM, 24 h): 7.68%; induction of apoptosis (Annexin V-FITC/PI) ([6]; A549, 0.2-1.6 μM): induce apoptosis in a concentration-dependent manner; IC50 [4]: 0.92 ± 0.14 µM; induction of apoptosis (cell morphology, AO staining) [7]: could induce apoptosis; IC50 [5]: > 10 µM
16 | Cc1ccc(C2CC(c3ccc(Cl)c(Cl)c3)=NN2c2nc(N(C)CCN(C)C)c3ccsc3n2)cc1 (stereo not drawn) [Compound 13g, N ^1-(2-(3-(3,4-Dichlorophenyl)-5-(p-tolyl)-4,5-dihydro-1H-pyrazol-1-yl)thieno[2,3-d]pyrimidin-4-yl)-N^1,N^2,N^2-trimethylethane-1,2-diamine] | – | 269 to 270 °C | – | – | 8.75 ± 0.24 µM | 6.96 ± 0.44 µM | 4.98 ± 0.04 µM | IC50 [4]: 3.31 ± 0.12 µM; IC50 [5]: > 10 µM
17 | CN(C)CCN(C)c1nc(N2N=C(c3ccc(Br)cc3)CC2c2ccc(F)cc2)nc2sccc12 (stereo not drawn) [Compound 13k, N ^1-(2-(3-(4-Bromophenyl)-5-(4-fluorophenyl)-4,5-dihydro-1H-pyrazol-1-yl)thieno[2,3-d]pyrimidin-4-yl)-N^1,N^2,N^2-trimethylethane-1,2-diamine] | – | 291 to 292 °C | – | – | 22.7 ± 0.35 µM | 10.9 ± 0.2 µM | 18.39 ± 0.18 µM | –
18 | CN(C)CCN(C)c1nc(N2N=C(c3ccc(F)cc3)CC2c2ccc(F)cc2)nc2sccc12 (stereo not drawn) [Compound 13c, N ^1-(2-(3,5-Bis(4-fluorophenyl)-4,5-dihydro-1H-pyrazol-1-yl)thieno[2,3-d]pyrimidin-4-yl)-N^1,N^2,N^2-tri-methylethane-1,2-diamine] | – | 256 to 257 °C | – | – | 9.23 ± 0.02 µM | 6.66 ± 0.13 µM | 6.51 ± 0.31 µM | IC50 [4]: 4.62 ± 0.54 µM; IC50 [5]: > 10 µM
19 | c1ccc(-c2ccnn2-c2nc(N3CCOCC3)c3sccc3n2)cc1 [Compound 4a, 4-(2-(5-Phenyl-1H-pyrazol-1-yl)thieno[3,2-d]pyrimidin-4-yl)morpholine] | > 100 µM | 243.6 to 244.8 °C | > 100 µM | > 100 µM | – | – | – | –
20 | CN(C)CCN(C)c1nc(N2N=C(c3ccc(Cl)c(Cl)c3)CC2c2ccc(F)cc2)nc2sccc12 (stereo not drawn) [Compound 13d, N ^1-(2-(3-(3,4-Dichlorophenyl)-5-(4-fluorophenyl)-4,5-dihydro-1H-pyrazol-1-yl)thieno[2,3-d]pyrimidin-4-yl)-N^1,N^2,N^2-trimethylethane-1,2-diamine] | – | 244 to 247 °C | – | – | 9.17 ± 0.32 µM | 7.27 ± 0.68 µM | 6.82 ± 0.17 µM | –
21 | COc1ccc(C2CC(c3ccc(Cl)c(Cl)c3)=NN2c2nc(N(C)CCN(C)C)c3ccsc3n2)cc1 (stereo not drawn) [Compound 13a, N ^1-(2-(3-(3,4-Dichlorophenyl)-5-(4-methoxyphenyl)-4,5-dihydro-1H-pyrazol-1-yl)thieno[2,3-d]pyrimidin-4-yl)-N^1,N^2,N^2-trimethylethane-1,2-diamine] | – | 232 to 233 °C | – | – | – | – | – | –
